Source: ChEMBL document CHEMBL4152313, “Design, synthesis and bioevaluation of 2-mercapto-6-phenylpyrimidine-4-carboxylic acid derivatives as potent xanthine oxidase inhibitors” (Eur J Med Chem, 2018)

Target: Xanthine dehydrogenase/oxidase (Homo sapiens, UniProt P47989)
Test: Inhibition of xanthine oxidase (unknown origin) using xanthine as substrate preincubated for 5 mins followed by substrate addition measured for 20 mins by spectrophotometric method

Sequence of Xanthine dehydrogenase/oxidase (P47989 whole entry): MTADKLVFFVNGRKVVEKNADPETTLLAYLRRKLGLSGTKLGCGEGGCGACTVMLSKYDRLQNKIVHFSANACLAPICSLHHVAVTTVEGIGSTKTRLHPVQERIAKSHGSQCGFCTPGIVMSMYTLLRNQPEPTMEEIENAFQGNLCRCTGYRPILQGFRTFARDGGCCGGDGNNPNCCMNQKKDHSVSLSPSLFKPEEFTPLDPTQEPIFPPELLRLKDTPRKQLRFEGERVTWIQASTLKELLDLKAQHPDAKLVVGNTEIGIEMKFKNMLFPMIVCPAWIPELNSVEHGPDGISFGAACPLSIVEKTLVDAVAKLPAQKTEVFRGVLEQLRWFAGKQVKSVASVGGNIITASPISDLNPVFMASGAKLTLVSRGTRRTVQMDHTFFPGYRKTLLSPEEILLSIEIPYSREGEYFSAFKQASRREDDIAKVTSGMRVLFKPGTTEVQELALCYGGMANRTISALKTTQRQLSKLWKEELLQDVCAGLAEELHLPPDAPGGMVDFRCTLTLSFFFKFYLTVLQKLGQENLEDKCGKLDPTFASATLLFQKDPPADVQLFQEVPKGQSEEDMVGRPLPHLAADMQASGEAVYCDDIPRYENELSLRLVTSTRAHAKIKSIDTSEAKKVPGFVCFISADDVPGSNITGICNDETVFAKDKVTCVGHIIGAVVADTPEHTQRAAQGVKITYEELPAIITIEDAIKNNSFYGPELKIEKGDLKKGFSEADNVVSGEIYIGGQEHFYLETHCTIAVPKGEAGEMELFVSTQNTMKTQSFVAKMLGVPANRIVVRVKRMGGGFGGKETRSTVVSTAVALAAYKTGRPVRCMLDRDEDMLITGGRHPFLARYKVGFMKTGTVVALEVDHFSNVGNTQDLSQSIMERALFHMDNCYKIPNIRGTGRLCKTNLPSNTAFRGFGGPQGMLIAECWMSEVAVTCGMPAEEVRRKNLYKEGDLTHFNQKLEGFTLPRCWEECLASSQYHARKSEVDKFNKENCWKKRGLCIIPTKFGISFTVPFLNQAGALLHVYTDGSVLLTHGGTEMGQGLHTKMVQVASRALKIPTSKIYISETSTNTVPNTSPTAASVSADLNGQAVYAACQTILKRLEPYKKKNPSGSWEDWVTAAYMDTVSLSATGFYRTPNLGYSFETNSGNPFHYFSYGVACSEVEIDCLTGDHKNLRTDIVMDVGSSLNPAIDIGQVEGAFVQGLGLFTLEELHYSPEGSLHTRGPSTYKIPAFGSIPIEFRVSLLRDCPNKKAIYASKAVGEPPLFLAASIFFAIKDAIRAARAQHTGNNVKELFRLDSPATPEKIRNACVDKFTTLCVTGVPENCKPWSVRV

## Cc1nc(-c2ccc(OCC(C)C)c(C#N)c2)sc1C(=O)O [FEBUXOSTAT]
  IC50: 13 nM
